Among the data in ChEMBL document CHEMBL4725370, “Discovery of Proteolysis-Targeting Chimera Molecules that Selectively Degrade the IRAK3 Pseudokinase” (J Med Chem, 2020) are Activity, logD and IC50 values, retold here.

Series [1] has as its target T1, von Hippel-Lindau disease tumor suppressor/Interleukin-1 receptor-associated kinase 3 (Homo sapiens) (UniProt Q9Y616+P40337). The experiment in a line: Protac activity at VHL/IRAK3 in LPS-induced human THP1 cells assessed as induction of IRAK3 degradation at 10 uM by Western blot analysis relative to control. It is filed as cell-based. Particulars: THP-1. A general note: A western blot detects proteins with antibodies after separation by electrophoresis.

Series [2] can be described thus: Octanol/buffer partition coefficient, log D of the compound at pH 7.4 by shake-flask method. The format is physicochemical.
Series [3] deals with T2, Interleukin-1 receptor-associated kinase 4 (Homo sapiens, UniProt Q9NWZ3).
T2 sequence (Q9NWZ3 whole entry): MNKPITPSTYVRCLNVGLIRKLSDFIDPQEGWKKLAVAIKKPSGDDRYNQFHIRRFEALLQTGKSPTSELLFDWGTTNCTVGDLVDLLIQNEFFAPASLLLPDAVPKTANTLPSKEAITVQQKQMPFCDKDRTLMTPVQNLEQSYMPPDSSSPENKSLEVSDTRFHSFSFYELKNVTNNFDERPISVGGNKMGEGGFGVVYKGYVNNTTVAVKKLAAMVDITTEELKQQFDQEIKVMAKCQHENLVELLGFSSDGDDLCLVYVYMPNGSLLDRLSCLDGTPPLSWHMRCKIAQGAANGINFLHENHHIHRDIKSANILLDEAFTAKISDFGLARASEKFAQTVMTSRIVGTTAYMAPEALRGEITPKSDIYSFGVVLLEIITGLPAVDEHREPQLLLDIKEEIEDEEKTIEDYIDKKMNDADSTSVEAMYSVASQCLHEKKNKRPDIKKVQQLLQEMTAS
Kind of series: Inhibition of recombinant human full-length His-tagged IRAK4 expressed in baculovirus expression system using 5-FAM-IPTSPITTTYFFFKKK-COOH as substrate measured after 240 mins by mobility shift assay.

The target in series [4] is T3, Interleukin-1 receptor-associated kinase 3 (Homo sapiens, UniProt Q9Y616).
T3 sequence (Q9Y616 whole entry): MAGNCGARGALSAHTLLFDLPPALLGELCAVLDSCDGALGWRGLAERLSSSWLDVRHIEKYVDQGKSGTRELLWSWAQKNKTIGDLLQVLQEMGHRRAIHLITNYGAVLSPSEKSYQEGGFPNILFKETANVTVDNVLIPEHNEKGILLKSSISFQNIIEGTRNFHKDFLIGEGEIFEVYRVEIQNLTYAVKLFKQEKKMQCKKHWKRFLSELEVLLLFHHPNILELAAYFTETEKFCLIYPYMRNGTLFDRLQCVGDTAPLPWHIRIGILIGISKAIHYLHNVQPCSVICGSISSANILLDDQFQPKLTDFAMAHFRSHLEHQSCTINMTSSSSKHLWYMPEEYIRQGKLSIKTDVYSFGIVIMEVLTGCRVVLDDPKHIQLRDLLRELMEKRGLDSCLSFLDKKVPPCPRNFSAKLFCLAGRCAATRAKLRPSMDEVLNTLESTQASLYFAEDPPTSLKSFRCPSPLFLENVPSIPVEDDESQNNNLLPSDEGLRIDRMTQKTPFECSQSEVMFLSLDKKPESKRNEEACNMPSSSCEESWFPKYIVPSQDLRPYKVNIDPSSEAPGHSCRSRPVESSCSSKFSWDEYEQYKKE
Kind of series: Inhibition of kinase tracer 236 binding to recombinant human full-length GST-tagged IRAK3 expressed in insect cells by Lanthascreen Eu kinase binding assay.

Series [5] concerns the target T1, von Hippel-Lindau disease tumor suppressor/Interleukin-1 receptor-associated kinase 3 (Homo sapiens). The experiment in a line: Protac activity at VHL/IRAK3 in LPS-induced human THP1 cells assessed as induction of IRAK3 degradation at 1 uM by Western blot analysis relative to control. The format is cell-based. Particulars: THP-1.
Series [6] concerns the target T4, Protein cereblon/Interleukin-1 receptor-associated kinase 3 (Homo sapiens, UniProt Q9Y616+Q96SW2). Kind of series: Protac activity at CRBN/IRAK3 in LPS-induced human THP1 cells assessed as induction of IRAK3 degradation at 10 uM by Western blot analysis relative to control. To be noted: THP-1. The format is cell-based.
Series [7] addresses T4, Protein cereblon/Interleukin-1 receptor-associated kinase 3. The experiment in a line: Protac activity at CRBN/IRAK3 in LPS-induced human THP1 cells assessed as induction of IRAK3 degradation at 1 uM by Western blot analysis relative to control. To be noted: THP-1. It is filed as cell-based.

A value given as a limit tells only on which side of the number the result lay.

T4 sequence (Q96SW2 whole entry, looked up, one chain of several): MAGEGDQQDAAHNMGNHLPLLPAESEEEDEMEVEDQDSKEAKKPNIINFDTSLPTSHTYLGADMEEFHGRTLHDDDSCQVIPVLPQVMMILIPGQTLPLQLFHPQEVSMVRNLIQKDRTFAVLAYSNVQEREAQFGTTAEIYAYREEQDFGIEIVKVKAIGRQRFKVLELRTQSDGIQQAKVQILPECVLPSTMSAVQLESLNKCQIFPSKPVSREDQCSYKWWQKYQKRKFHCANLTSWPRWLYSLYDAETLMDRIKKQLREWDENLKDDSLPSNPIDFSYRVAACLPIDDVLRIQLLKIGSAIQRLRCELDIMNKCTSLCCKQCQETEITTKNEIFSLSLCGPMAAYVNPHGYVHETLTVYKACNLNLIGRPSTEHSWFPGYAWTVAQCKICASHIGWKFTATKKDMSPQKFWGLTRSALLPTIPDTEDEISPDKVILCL
T1 sequence (P40337 whole entry, looked up, one chain of several): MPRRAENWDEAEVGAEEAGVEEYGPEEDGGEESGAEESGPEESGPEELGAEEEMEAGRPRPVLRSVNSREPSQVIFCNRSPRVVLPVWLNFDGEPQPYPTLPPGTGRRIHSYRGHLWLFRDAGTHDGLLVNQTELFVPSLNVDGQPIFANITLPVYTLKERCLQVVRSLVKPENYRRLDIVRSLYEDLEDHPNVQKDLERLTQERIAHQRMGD

As for `Cc1ncsc1-c1ccc(CNC(=O)[C@@H]2C[C@@H](O)CN2C(=O)[C@@H](NC(=O)CCCNC(=O)CCC(=O)N2CCN([C@H]3CC[C@@H](Nc4ncnn5ccc(C(C)C)c45)CC3)CC2)C(C)(C)C)cc1`, the Activity in series [1] and in series [5] was 0% in each case. This molecule came in with a logD in series [2] of 3.7. Further, the values for the IC50 in series [3] and in series [4] were > 1000 nM and 15 nM, respectively.

As for `CC(C)c1ccn2ncnc(N[C@H]3CC[C@@H](N4CCN(C(=O)CCC(=O)NCCOCCOCCNc5cccc6c5C(=O)N(C5CCC(=O)NC5=O)C6=O)CC4)CC3)c12` (some centres undefined), the figures for the Activity in series [6] and in series [7] were 13% and 17%, respectively. The logD in series [2] was 2.3. The IC50 in series [3] was 4900 nM; in series [4], 10 nM.

As for `CC(C)c1ccn2ncnc(N[C@H]3CC[C@@H](N4CCN(C(=O)CCOCCOCCOCCOCCOCCNc5cccc6c5C(=O)N(C5CCC(=O)NC5=O)C6=O)CC4)CC3)c12` (some centres undefined), the figures for the Activity in series [6] and in series [7] were 49% and 78%, respectively. In addition, the logD in series [2] came to 2.1. Also, the IC50 was > 10000 nM in series [3] and 33 nM in series [4].

`Cc1ncsc1-c1ccc(CNC(=O)[C@@H]2C[C@@H](O)CN2C(=O)[C@@H](NC(=O)COCCOCCOCCNC(=O)CCC(=O)N2CCN([C@H]3CC[C@@H](Nc4ncnn5ccc(C(C)C)c45)CC3)CC2)C(C)(C)C)cc1`: the Activity in series [1] and in series [5] was 0% in each case. In series [2], this molecule yielded a logD of 3.1. Also, the IC50 in series [3] is > 1000 nM; in series [4] it was 25 nM.

In the case of `Cc1ncsc1-c1ccc(CNC(=O)[C@@H]2C[C@@H](O)CN2C(=O)[C@@H](NC(=O)COCCOCCOCCOCCOCCOCC(=O)N2CCN([C@H]3CC[C@@H](Nc4ncnn5ccc(C(C)C)c45)CC3)CC2)C(C)(C)C)cc1`, the Activity came to 43% in series [1] and 20% in series [5]. In addition, the logD in series [2] amounted to 2.8. The values for the IC50 in series [3] and in series [4] were > 10000 nM and 33 nM, respectively.

As for `Cc1ncsc1-c1ccc(CNC(=O)[C@@H]2C[C@@H](O)CN2C(=O)[C@@H](NC(=O)CCCCCCNC(=O)CCC(=O)N2CCN([C@H]3CC[C@@H](Nc4ncnn5ccc(C(C)C)c45)CC3)CC2)C(C)(C)C)cc1`, the Activity in series [1] and in series [5] was 0% throughout. Moreover, the logD in series [2] was > 3. The IC50 in series [3] was > 1000 nM; in series [4] it was 6 nM.

On to `Cc1ncsc1-c1ccc(CNC(=O)[C@@H]2C[C@@H](O)CN2C(=O)[C@@H](NC(=O)COCCOCCOCCOCCNC(=O)CCC(=O)N2CCN([C@H]3CC[C@@H](Nc4ncnn5ccc(C(C)C)c45)CC3)CC2)C(C)(C)C)cc1`, for which the Activity in series [1] and in series [5] was 0% in each case. In series [2], this molecule displayed a logD of 3. In addition, the IC50 in series [3] is > 1000 nM; in series [4] it was 19 nM.

Regarding `Cc1ncsc1-c1ccc(CNC(=O)[C@@H]2C[C@@H](O)CN2C(=O)[C@@H](NC(=O)COCCOCCNC(=O)CCC(=O)N2CCN([C@H]3CC[C@@H](Nc4ncnn5ccc(C(C)C)c45)CC3)CC2)C(C)(C)C)cc1`, the results for the Activity in series [1] and in series [5] were 20% and 0%, respectively. The molecule further displayed a logD in series [2] of 3.3. The IC50 in series [3] was > 10000 nM; in series [4], 24 nM.

On to `Cc1ncsc1-c1ccc(CNC(=O)[C@@H]2C[C@@H](O)CN2C(=O)[C@@H](NC(=O)COCCOCCOCCOCC(=O)N2CCN([C@H]3CC[C@@H](Nc4ncnn5ccc(C(C)C)c45)CC3)CC2)C(C)(C)C)cc1`, for which the Activity amounted to 62% in series [1] and 25% in series [5]. The logD in series [2] turned out to be 3.2. Moreover, the figures for the IC50 in series [3] and in series [4] were > 10000 nM and 21 nM, respectively.

Turning to `CC(=O)N1CCN([C@H]2CC[C@H](Nc3ncnn4ccc(C(C)C)c34)CC2)CC1`, the IC50 in series [4] is 31 nM.

For `Cc1ncsc1-c1ccc(CNC(=O)[C@@H]2C[C@@H](O)CN2C(=O)[C@@H](NC(=O)COCCOCCOCCOCCOCC(=O)N2CCN([C@H]3CC[C@@H](Nc4ncnn5ccc(C(C)C)c45)CC3)CC2)C(C)(C)C)cc1`, the Activity turned out to be 67% in series [1] and 21% in series [5]. In addition, in series [4], the IC50 was 51 nM.

For orientation: logD means the decadic logarithm of the distribution of all forms, ionised or not, between an organic phase and buffer at a given pH. Lower therefore signals lower lipophilicity. As usually defined, the IC50 is the concentration that gives 50% inhibition.
